Series [1] in a line: Cytotoxicity in TZM-bl cells (MTT). The series is classed as cell-based, human. The settings on record: human, TZM-bl cells; 48hs. The method, then: (§1) TZM-bl cells, U87-CD4-CCR5, murine macrophages (J774.1), and THP-1 monocytes (ATCC®TIB-202™) were grown following ATCC recommendations. Cells were seeded in a 96-well plate (10^4 cells in 200 µL culture medium) and incubated at 37 °C in a 5% CO2 atmosphere for 48 h, to allow cell adhesion before drug testing. For stimulation (THP-1 monocytes), cells were incubated with 100 nM of phorbol 12-myristate 13-acetate (PMA) for 48 h. […] A vehicle for control (0.4% DMSO) and negative wells (cells in medium) was used in each test. […] After removing the medium, formazan crystals were dissolved in 180 µL of DMSO and 20µL of MTT buffer (0.1 M glycine, 0.1 M NaCl, 0.5 mM EDTA, pH 10.5), and the absorbance at 560 nm was measured. […] Tests were performed in triplicate, in two independent experiments.

For another series, the system named is TZM-bl cells. Kind of series: Cytotoxicity in TZM-bl cells (MTT). The series is classed as cell-based, human. Particulars: Homo sapiens, TZM-bl; Table 1, 696, 48hs. The protocol: as §1
Series [2] is described as follows: Cytotoxicity in mammalian cells (MTT, all cell types). It is filed as cell-based. The settings on record: tested at 25, 50, and 100 µM. The protocol: The cytotoxicity of the compounds was assayed in different types of cells (TZM-bl cells, U87-CD4-CCR5, murine macrophages (J774.1), and THP-1 monocytes) at 25, 50, and 100 µM (Fig. 2). […] Compound 314 has the most complete toxicology profile because was preclinically developed for Chagas disease infection, as an antiparasitic drug. […] It has lower oral toxicity than PF74. Was predicted as no mutagenic by the TEST software.
TZM-bl cells, U87-CD4-CCR5, murine macrophages (J774.1), and THP-1 monocytes (ATCC®TIB-202™) were grown following ATCC recommendations. Cells were seeded in a 96-well plate (10^4 cells in 200 µL culture medium) and incubated at 37 °C in a 5% CO2 atmosphere for 48 h, to allow cell adhesion before drug testing. For stimulation (THP-1 monocytes), cells were incubated with 100 nM of phorbol 12-myristate 13-acetate (PMA) for 48 h. PMA was then washed and cells were left for an additional 24 h, 48 h or11 days (only U87 cells) with growth media containing compound 696 at 10, 25, 50, and 100 µM. […] Cell viability was then assessed by measuring the mitochondria-dependent reduction of MTT (3-(4,5-dimethylthiazol-2-yl)-2,5-diphenyltetrazolium bromide) to formazan. […] After removing the medium, formazan crystals were dissolved in 180 µL of DMSO and 20µL of MTT buffer (0.1 M glycine, 0.1 M NaCl, 0.5 mM EDTA, pH 10.5), and the absorbance at 560 nm was measured. […]

The target of the next series is T1, monomeric HIV-1 CA (Human immunodeficiency virus type 1 group M subtype B, UniProt P12493).
T1 construct: the capsid protein (CA) of the Gag polyprotein; made in house
Kind of series: Affinity for HIV-1 CA by microscale thermophoresis (MST). The series is classed as binding. The method, then: The affinity of compound 696 for HIV-1 CA in vitro was measured by microscale thermophoresis (MST) as described previously for FIV CA [31]. Due to its intrinsic autofluorescence interfering with MST, the binding of compound 314 to CA was measured using isothermal microcalorimetry (ITC) with a Microcal iTC200 calorimeter (Malvern Instruments, Worcestershire, UK). The calorimeter cell contained 200 µL of recombinant HIV-1 CA (kind gifted by Drs Verrier and Coiffier) at 0.78 mg/mL in phosphate buffer (NaH2PO4/Na2HPO4) 50 mM pH 7.5, NaCl 100 mM, 1% DMSO [v/v]. Compound 314 at 200 µM was then injected sequentially into the calorimeter cell (injection #1: 1 µL, injections #2-#20: 2 µL) at 120 s intervals. Data were analyzed using the OriginLab8.5® software according to the manufacturer’s instructions.

The target of another series is HIV-1 CA (Human immunodeficiency virus type 1 group M subtype B, UniProt P12493). Kind of series: HIV-1 CA assembly inhibition assay (absorbance at 340 nm). It is filed as biochemical. Further details: the capsid protein (CA) of the Gag polyprotein; made in house; host or cells: Escherichia coli BL21(DE3) pLysS. The method, then:
The CA assembly assay was performed in a final volume of 70 µL in 384-well plates, with a final concentration of 5 mg/mL of purified recombinant HIV-1 CA in Phosphate/NaCl Buffer (NaH2PO4/Na2HPO4 50 mM, NaCl 100 mM, pH 7.4), as described for FIV CA [27, 31]. Absorbance was measured at 340 nm every 30 s in a multiplate reader VarioskanTM Flash Multimode Reader (Thermo Scientific, MA, US) at 37 °C for 30 min. The compounds were tested at a fixed initial dose of 25 or 50 µM (at 0.5% DMSO [v/v]) by adding 1 µL of the concentrated ligand to the well before starting the measurement. The controls were CA at 5 mg/mL in only 0.5% DMSO [v/v] and CA without DMSO. The criteria to select active compounds were the observation of at least 50% of assembly inhibition at these doses, based on the reduction of the OD value at 340 nm at the plateau value compared to the controls.

This note sets out measurements from article PMC9241302, “Identification of 2-(4-N,N-Dimethylaminophenyl)-5-methyl-1-phenethyl-1H-benzimidazole targeting HIV-1 CA capsid protein and inhibiting HIV-1 replication in cellulo” (BMC Pharmacology & Toxicology, 2022).

Read-outs that look alike come from different tables or passages of the source.

In the case of `Cc1ccc2c(c1)nc(-c1ccc(N(C)C)cc1)n2CCc1ccccc1` [compound 696, 2-(4-N,N-dimethylaminophenyl)-5-methyl-1-phenethyl-1H-benzimidazole], the EC50 (usually the concentration giving half of the maximal effect) at 48 h in series [1] was over 50 µM. Further, the values for the EC50 (in the series with TZM-bl cells; in series [2]) were over 25 µM and over 50 µM, respectively. Besides, at monomeric HIV-1 CA, binding was put at a Kd of 69 ± 6 µM. Also, the entries for the “Effect in p24 multimerization in vitro” value on HIV-1 CA and on HIV-1 CA (listed as C00002) were “inhibited” and “inhibition”, respectively. In addition, on HIV-1 CA (compounds at 25 or 50 µM, CA 5 mg/mL, 30 min), the “interference with the assembly of HIV-1 CA in vitro” value is given as “interference with the assembly”.
